Assay results reported in ChEMBL document CHEMBL4393688, “Synthesis, in vitro and in vivo characterization of new benzoxazole and benzothiazole-based sigma receptor ligands” (Eur J Med Chem, 2019).
The source made the active and inactive calls. No cut-off for these calls is given here.

What was measured:
[1] = target: Sigma non-opioid intracellular receptor 1 (Cavia porcellus, UniProt Q60492); test: Displacement of [3H]-(+)-pentazocine from sigma1 receptor in guinea pig brain membranes incubated for 150 mins by scintillation counting method; format: cell membranes
Sequence of Sigma non-opioid intracellular receptor 1 (Q60492 whole entry): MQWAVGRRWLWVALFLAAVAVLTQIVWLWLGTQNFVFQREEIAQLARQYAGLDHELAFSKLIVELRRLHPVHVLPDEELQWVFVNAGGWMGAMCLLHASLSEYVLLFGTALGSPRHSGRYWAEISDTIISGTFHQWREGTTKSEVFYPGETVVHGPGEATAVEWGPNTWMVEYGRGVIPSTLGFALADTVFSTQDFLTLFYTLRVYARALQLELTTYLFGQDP

[2] = target: Sigma intracellular receptor 2 (Homo sapiens, UniProt Q5BJF2); test: Displacement of [3H]-DTG from sigma2 receptor (unknown origin) incubated for 120 mins by scintillation counting method
Sequence of Sigma intracellular receptor 2 (Q5BJF2 whole entry): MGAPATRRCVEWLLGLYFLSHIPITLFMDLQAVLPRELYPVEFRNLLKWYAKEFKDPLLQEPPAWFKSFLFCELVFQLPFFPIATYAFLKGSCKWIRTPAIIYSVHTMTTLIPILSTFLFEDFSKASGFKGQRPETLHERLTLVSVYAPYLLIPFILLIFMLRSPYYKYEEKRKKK

[3] = Selectivity ratio of Ki for sigma2 receptor (unknown origin) to Ki for sigma1 receptor in guinea pig brain cortex membranes; format: cell membranes
MCF7 [4] = test: Induction of apoptosis in human MCF7 cells assessed as increase in caspase-3 activity at 20 uM incubated for 24 hrs by Ac-DEVD-pNA substrate-based colorimetric assay; format: functional, cell-based
MCF7 [5] = test: Cytotoxicity against human MCF7 cells assessed as reduction in cell viability incubated for 24 hrs by MTT assay; format: functional, cell-based; details: MCF7, 24 h
Mus musculus [6] = test: Analgesic activity in formalin-induced nociception mouse model assessed as decrease in time spent on licking or flinching formalin injected right hind paw during early nociceptive phase at 2.5 to 5 mg/kg, ip administered 15 mins prior to formalin challenge measured at 5 mins interval for 10 mins; format: functional, organism-based
Mus musculus [7] = test: Analgesic activity in formalin-induced nociception mouse model assessed as decrease in time spent on licking or flinching formalin injected right hind paw during inflammatory phase at 2.5 to 5 mg/kg, ip administered 15 mins prior to formalin challenge measured at 5 mins interval for 10 to 60 mins; format: functional, organism-based

Compound | Ki [1] [nM] | Ki [2] [nM] | Ratio Ki [3] | Activity (MCF7 [4]) | IC50 (MCF7 [5]) [nM] | Activity (Mus musculus [6]) | Activity (Mus musculus [7])
Clc1ccc2oc(SCCN3CCCCCC3)nc2c1 | 1.93 | 87 | 45 | – | – | – | –
O=c1oc2ccc(Cl)cc2n1CCCN1CCCCCC1 | 6.3 | 64.1 | 10.2 | – | – | – | –
Clc1ccc2oc(SCCCN3CCCCCC3)nc2c1 | 2.35 | 16 | 6.2 | – | – | – | –
O=c1sc2ccc(Cl)cc2n1CCCN1CCCCCC1 | 7.4 | 68.8 | 9.3 | – | – | – | –
O=c1oc2ccc(Cl)cc2n1CCCCN1CCCCCC1 | 2.3 | 3.8 | 1.6 | Active | 44800 | Active | Active
O=c1sc2ccc(Cl)cc2n1CCN1CCCCCC1 | 180 | 1670 | 9.3 | – | – | – | –
Clc1ccc2sc(SCCN3CCCCCC3)nc2c1 | 407 | > 1000 | > 2.4 | – | – | – | –
Clc1ccc2sc(SCCCCN3CCCCCC3)nc2c1 | 8.44 | 21.8 | 2.6 | – | – | – | –
Clc1ccc2oc(SCCCCN3CCCCCC3)nc2c1 | 2.4 | 11 | 4.6 | – | – | – | –
O=c1sc2ccc(Cl)cc2n1CCCCN1CCCCCC1 | 0.78 | 7.61 | 9.7 | Active | 27800 | inactive | Active
O=c1oc2ccc(Cl)cc2n1CCN1CCCCCC1 | 99 | 652 | 6.6 | – | – | – | –
Clc1ccc2sc(SCCCN3CCCCCC3)nc2c1 | 1.27 | 7.9 | 6.8 | Active | 20500 | inactive | inactive
CC[C@H]1C[C@@H]2C[C@H]3c4[nH]c5ccc(OC)cc5c4CC[N@@](C2)[C@@H]13 | – | – | – | Active | 29600 | – | –
O=C(CCCN1CCC(O)(c2ccc(Cl)cc2)CC1)c1ccc(F)cc1 [HALOPERIDOL] | – | – | – | Active | 20200 | – | –
